Assay [1] has as its system LVNC cardiomyocytes. The assay can be described thus: Proteomic analysis (LC-MS/MS) of LVNC cardiomyocytes treated with or without simvastatin. In kind it is cell-based, human. The protocol: The samples were further digested by trypsin. After being desalted and dried, LC-MS/MS analysis was performed by the LTQ-Orbitrap Velos mass spectrometer system. The peptide and protein group IDs were obtained by MASCOT database searching with precursor mass accuracy of 7 ppm and MS/MS accuracy of 0.5 Da. The large mass-spectrometric raw data were further analyzed by the MaxQuant software based on the Uniprot human database with a label-free quantification method and followed by the statistical analysis using the Perseus software.

Assay [2] concerns Tnnt2^R154W/+::Mypn^S1291T/+ LVNC mice. Description: Echocardiography of cardiac function (LVEF) in LVNC mice. The assay is classed as in vivo, mouse. On the procedure:
Tnnt2(R154W)- and Mypn(S1291T)-knockin mice on C57BL/6j background were generated by Gene Knockout Mouse Core Laboratory of National Taiwan University Center of Genomic Medicine. Genetically heterozygous LVNC mice (Tnnt2(R154W)^+/−:: Mypn(S1291T)^+/−) were obtained from crossing Tnnt2(R154W)^+/− and Mypn(S1291T)^+/− mice. PCR and DNA sequencing were performed to confirm the genotype. All animal procedures and protocols were approved by AAALAC-accredited facility.
The cardiac motion function of LVNC mice was measured through echocardiography in M-mode by the VisualSonic vevo 2100 imaging system (VisualSonic Inc., Toronto, Canada). Cardiac glucose metabolic rate of LVNC mice was measured by dynamic small animal positron emission tomography (PET) observation under anesthetization by 2% isoflurane inhalation. ^18F-FDG (fluorodeoxyglucose 18F) uptake in LVNC mouse heart was measured for the analysis of cardiac glucose metabolic rate (MRGlu) by dynamic small animal positron emission tomography (PET) to examine the changes in cardiometabolism.
Repeated measures two-way ANOVA with multiple comparisons by the Tukey test was used to distinguish the difference in cell shortening velocity between DMSO- and simvastatin-groups on day 50 and day 70 in LVNC-hiPSC-CMs of iFa and iH. […]

Assay [3] concerns LVNC cardiomyocytes. Description: Cell shortening (Ionoptix) and inotropic response to isoprenaline in LVNC-hiPSC-CMs. The assay is classed as cell-based, human. The settings on record: 5 μM; isoprenaline 0.03, 0.1, 1 μM; treatment day 30 through day 70; FIG. 3B. From the text:
(§1) Human induced pluripotent stem cell (hiPSC) lines respectively derived from patients with left ventricular non-compaction cardiomyopathy (LVNC) and a normal healthy […] were reprogrammed through two approaches; one line of each patient was reprogrammed from skin cells by lentivirus carrying four Yamanaka factors (Klf4, Myc, Sox2, Oct4; conducted by Dr. Hong-Nerng Ho at NTU) and the other line was reprogrammed from peripheral blood monocytes (PBMC) by Sendai virus carrying the four Yamanaka factors (conducted by Dr. Joseph C. Wu at Stanford University). Patients consented to collect patients' tissues/blood cells for genetic examination, reprogramming to hiPSC, and pharmacological studies. Drug effect was validated via testing the same drug at the same dose in human cardiomyocytes derived from the two lines of the same patient with at least three independent repeats in each line. Cell shortening was measured by the Ionoptix system (Westwood, Mass., USA), and mitochondrial function was assessed by an Agilent seahorse analyzer (Seahorse Bioscience, MA, USA).

In assay [4] the test system is LVNC cardiomyocytes. Description: Seahorse assay of mitochondrial function (OCR, ECAR) in LVNC-hiPSC-derived cardiomyocytes. The assay is classed as cell-based, human. The settings on record: 5 μM, iH LVNC cardiomyocytes, FIG. 2C.
Source text: as §1, with “Drug effect was validated via testing the same drug at the same dose in human cardiomyocytes derived from the two lines of the same patient with at least three independent repeats in each line.” left out
Seahorse assay was performed on day 70 to measure mitochondrial OCR (Oxygen Consumption Rate) and ECAR (Extracellular Acidification Rate) under the conditions in the sequential adding of the XF mito stress test kit with the indicated reagents by the arrows. […] The relationship of OCR vs. ECAR was measured under the conditions of basal (before oligomycin) and maximum respiratory capacity (after FCCP).

The source of these data is patent publication US11690822B2, “Method for treating non-compaction cardiomyopathy” (EXCELSIOR PHARMATECH LABS, priority 2018, dated 2023).

Each structure is given as a SMILES string.

With `CCC(C)(C)C(=O)O[C@H]1C[C@@H](C)C=C2C=C[C@H](C)[C@H](CC[C@@H]3C[C@@H](O)CC(=O)O3)[C@H]21` [simvastatin], the “number of proteins highly expressed in both healthy/iH,ctrl and iH,s/iH,ctrl” value with LVNC cardiomyocytes [1] (iH LVNC cardiomyocytes, FIG. 4C) stood at 69 proteins. Moreover, in the assay with LVNC cardiomyocytes [1] (two LVNC patients (iFa & iH), FIG. 4D), the “number of proteins significantly upregulated in both iF,s/iF,ctrl and iH,s/iH,ctrl” value worked out at 27 proteins. Also, the “slope of linear regression of LVEF % vs. day” value in assay [2] (S(d1-84): treated initial 84 days, then 42 days drug holiday, P=0.1326, R square=0.3352, not significantly deviated from zero) stood at 0.05031; in assay [2] (S(d1-126): continuous treatment 126 days, 3.5 mg/kg/day osmotic pump, P=0.0297, R square=0.6445, significantly deviated from zero) it was 0.1098.
For `CC(C)c1c(C(=O)Nc2ccccc2)c(-c2ccccc2)c(-c2ccc(F)cc2)n1CC[C@@H](O)C[C@@H](O)CC(=O)O` [atorvastatin], the “cardiac contraction and positive inotropic response to isoprenaline-induced β-stimulation” value in the assay on LVNC cardiomyocytes [3] was “the efficacy of simvastatin is better than those of the other statins”.
For `Cc1cc(C)c(CNC(=O)c2cc(-c3ccc(N4CCN(C)CC4)nc3)cc3c2c(C)cn3C(C)C)c(=O)[nH]1` [GSK503], the results for the “OCR and ECAR of LVNC cardiomyocytes (mitochondrial function)” value in the assay with LVNC cardiomyocytes [4] and in the assay on LVNC cardiomyocytes [4] (listed as gsk) were “does not significantly improve OCR or ECAR” and “did not change cardiac mitochondrial dysfunction”, respectively.
Consider `O=C(CCCCCCC(=O)Nc1ccccc1)NO` [SAHA], for which the “cardiac contraction and positive inotropic response to isoprenaline-induced β-stimulation” value with LVNC cardiomyocytes [3] is “unable to improve LVNC cardiac functions”.
For the molecule `CC[C@H](C)C(=O)O[C@H]1C[C@@H](C)C=C2C=C[C@H](C)[C@H](CC[C@@H]3C[C@@H](O)CC(=O)O3)[C@H]21` [lovastatin], the “cardiac contraction and positive inotropic response to isoprenaline-induced β-stimulation” value in the assay with LVNC cardiomyocytes [3] is “the efficacy of simvastatin is better than those of the other statins”.
